Measurements: the supplement of paper PMC8882468
Values joined by “and” are separate entries in the source; they are usually repeats but may differ in a detail not shown here. Identical values can stand only once.

Tests used:
Experiment in all cases: CTG-3D luminescence at 96 h relative to day-0 seeding control (ratio to day 0); higher = more growth / less cytotoxicity; PDxO 3D drug screen (set 2), 96 h, CTG-3D normalised to day-0 seeding control.
[1] = system: HCI-003.E2 (organoid from an ER-positive breast cancer xenograft)
[2] = system: MDA-MB-231
[3] = system: HCI-001 (organoid from a triple-negative breast cancer xenograft)
[4] = system: HCI-005.E2 (organoid from a breast cancer xenograft with a HER2-positive history)
[5] = system: HCI-024 (organoid from a breast cancer xenograft)
[6] = system: HCI-027 (organoid from a triple-negative breast cancer xenograft)

CC(=O)O[C@@]12CO[C@@H]1C[C@H](O)[C@@]1(C)C(=O)[C@H](O)C3=C(C)[C@@H](OC(=O)[C@H](O)[C@@H](NC(=O)OC(C)(C)C)c4ccccc4)C[C@@](O)([C@@H](OC(=O)c4ccccc4)[C@H]21)C3(C)C [docetaxel]
CTG-3D luminescence at 96 h
Settings | 12.5 pM | 0.00025 µM | 0.005 µM | 0.1 µM | 1 µM | 10 µM | 100 µM | 625 fM
[1] | 0.748 | 0.702 | 0.684 | 0.627 | 0.599 | 0.261 | 0.0093 | 0.993
[2] | 4.86 and 2.64 | 3.88 and 2.58 | 3.24 and 2.69 | 2.84 and 2.47 | 3.11 and 2.65 | 3.34 and 2.92 | 1.24 and 1.2 | 4.81 and 2.82
[4] | 1.75 | 1.98 | 2.07 | 2.26 | 2.22 | 1.75 | 0.813 | 2.5

CTG-3D luminescence at 96 h
Settings | 12.5 pM | 0.00025 µM | 0.005 µM | 0.1 µM | 1 µM | 10 µM | 100 µM | 625 fM
[3], days in culture: 365 | 1.99 | 1.78 | 1.68 | 1.79 | 1.49 | 1.18 | 1.1 | 1.34
[3], days in culture: 397 | 1.11 | 1.7 | 1.28 | 1.67 | 1.72 | 1.72 | 0.311 | 0.889
[3], days in culture: 401 | 1 | 1.57 | 0.829 | 1.35 | 1.02 | 1.19 | 0.514 | 1.16
[5], days in culture: 202 | 0.822 | 0.868 | 0.82 | 1.17 | 0.844 | 1.08 | 0.0987 | 0.654
[5], days in culture: 231 | 0.86 | 0.987 | 0.75 | 0.873 | 1.08 | 1.06 | 0.0745 | 1.06
[5], days in culture: 254 | 0.926 | 1.02 | 1.14 | 1.11 | 1.87 | 0.726 | 0.241 | 1.59
[6], days in culture: 145 | 1.01 | 0.93 | 0.832 | 0.862 | 0.922 | 0.849 | 0.15 | 1.06
[6], days in culture: 158 | 2.07 | 2.12 | 1.05 | 0.461 | 1.19 | 2.61 | 0.153 | 3.28
[6], days in culture: 164 | 2.42 | 1.32 | 0.405 | 0.525 | 0.555 | 0.505 | 0.117 | 1.04
[6], days in culture: 176 | 3.89 | 2.21 | 0.338 | 0.629 | 0.457 | 0.475 | 0.0832 | 2.73
[6], days in culture: 186 | 1.45 | 1.25 | 0.855 | 0.693 | 0.469 | 0.451 | 0.0466 | 2.08

COc1cccc2c1C(=O)c1c(O)c3c(c(O)c1C2=O)C[C@@](O)(C(=O)CO)C[C@@H]3O[C@H]1C[C@H](N)[C@@H](O)[C@H](C)O1 [epirubicin]
CTG-3D luminescence at 96 h
Settings | 12.5 pM | 0.00025 µM | 0.005 µM | 0.1 µM | 1 µM | 10 µM | 100 µM | 625 fM
[1] | 2.55 | 2.48 | 2.34 | 2.23 | 0.712 | 0.0173 | 0.000274 | 3.06
[2] | 5.46 and 4.99 | 5.52 and 4.95 | 4.84 and 4.76 | 3.26 and 3.33 | 0.232 and 0.543 | 0.504 and 0.188 | -0.0125 and -0.0119 | 5.48 and 5.03
[4] | 1.54 | 1.65 | 1.41 | 0.977 | 0.0317 | 0.00772 | -0.000128 | 1.98

CTG-3D luminescence at 96 h
Settings | 12.5 pM | 0.00025 µM | 0.005 µM | 0.1 µM | 1 µM | 10 µM | 100 µM | 625 fM
[3], days in culture: 365 | 2.72 | 2.24 | 2.31 | 1.83 | 0.374 | 0.226 | -0.00151 | 2.09
[3], days in culture: 397 | 1.49 | 2.3 | 1.7 | 1.3 | 0.405 | 0.197 | -0.00311 | 1.83
[3], days in culture: 401 | 1.41 | 1.96 | 1.6 | 1.06 | 0.216 | 0.3 | -0.00404 | 1.55
[5], days in culture: 202 | 1.44 | 1.41 | 0.402 | 0.943 | 0.189 | 0.201 | 0.0124 | 0.718
[5], days in culture: 231 | 1.26 | 1.41 | 1.2 | 0.91 | 0.331 | 0.141 | 0.0266 | 1.79
[5], days in culture: 254 | 1.76 | 2 | 0.967 | 0.838 | 0.196 | 0.165 | 0.0227 | 1.93
[6], days in culture: 145 | 1.6 | 2.63 | 1.78 | 0.146 | 0.087 | 0.0692 | -0.00274 | 1.49
[6], days in culture: 158 | 3.01 | 2.81 | 2.46 | 0.544 | 0.0846 | 0.202 | -0.00223 | 4.2
[6], days in culture: 164 | 2.5 | 1.5 | 1.53 | 0.169 | 0.142 | 0.104 | -0.00102 | 3.34
[6], days in culture: 176 | 3.02 | 2.26 | 1.43 | 0.676 | 0.0317 | 0.0395 | -0.000121 | 2.01
[6], days in culture: 186 | 1.68 | 0.902 | 1.46 | 0.866 | 0.0439 | 0.0934 | -0.00168 | 2.13

CO[C@H]1C[C@@H]2CC[C@@H](C)[C@@](O)(O2)C(=O)C(=O)N2CCCC[C@H]2C(=O)O[C@H]([C@H](C)C[C@@H]2CC[C@@H](OCCO)[C@H](OC)C2)CC(=O)[C@H](C)/C=C(\C)[C@@H](O)[C@@H](OC)C(=O)[C@H](C)C[C@H](C)/C=C/C=C/C=C/1C [everolimus]
CTG-3D luminescence at 96 h
Settings | 12.5 pM | 0.00025 µM | 0.005 µM | 0.1 µM | 1 µM | 10 µM | 100 µM | 625 fM
[1] | 1.22 | 1.04 | 0.796 | 0.297 | 0.0538 | 0.03 | 0.000105 | 1.67
[2] | 5.2 and 4.8 | 5.04 and 4.75 | 4.83 and 4.91 | 4.27 and 4.36 | 3.79 and 3.62 | 3.5 and 2.66 | -0.00539 and -0.00564 | 5.28 and 4.71
[4] | 1.05 | 1.43 | 1.45 | 1.18 | 0.769 | 0.653 | -0.000603 | 1.6

CTG-3D luminescence at 96 h
Settings | 12.5 pM | 0.00025 µM | 0.005 µM | 0.1 µM | 1 µM | 10 µM | 100 µM | 625 fM
[3], days in culture: 365 | 1.99 | 1.3 | 1.52 | 1.53 | 1.65 | 1.34 | 0.0033 | 1.24
[3], days in culture: 397 | 1.23 | 1.76 | 1.92 | 1.59 | 1.16 | 1.33 | -0.000266 | 0.913
[3], days in culture: 401 | 1.21 | 1.26 | 1.27 | 1.07 | 1.1 | 1.27 | -0.00223 | 1.41
[5], days in culture: 202 | 0.906 | 1.18 | 0.737 | 1.7 | 1.12 | 1.74 | 0.00395 | 1.12
[5], days in culture: 231 | 0.783 | 1.17 | 0.961 | 1.01 | 0.971 | 1.11 | 0.000185 | 0.943
[5], days in culture: 254 | 2.18 | 0.836 | 1.02 | 1.31 | 1.11 | 1.02 | 0.00153 | 2.4
[6], days in culture: 145 | 1.16 | 1.53 | 1.5 | 1.39 | 1.19 | 0.742 | -0.00159 | 1.87
[6], days in culture: 158 | 1.27 | 1.84 | 2.74 | 2.29 | 2.53 | 0.866 | -0.00155 | 5.49
[6], days in culture: 164 | 2.66 | 1.52 | 1.32 | 1.43 | 0.817 | 0.404 | 0.000466 | 2.04
[6], days in culture: 176 | 2.43 | 2.12 | 1.35 | 1.31 | 1.44 | 0.309 | 0.000718 | 2.75
[6], days in culture: 186 | 1.24 | 1.55 | 2.18 | 1.05 | 0.291 | 0.288 | 0.00707 | 3.1

CS(=O)(=O)CCNCc1ccc(-c2ccc3ncnc(Nc4ccc(OCc5cccc(F)c5)c(Cl)c4)c3c2)o1 [lapatinib]
CTG-3D luminescence at 96 h
Settings | 12.5 pM | 0.00025 µM | 0.005 µM | 0.1 µM | 1 µM | 10 µM | 100 µM | 625 fM
[1] | 2.53 | 2.41 | 2.48 | 2.27 | 1.77 | 0.0655 | 0.000467 | 2.95
[2] | 5.64 and 5.22 | 5.66 and 5.01 | 5.76 and 5.34 | 5.51 and 5.1 | 5.57 and 4.9 | – | 0.00446 and 0.0132 | 5.54 and 5.06
[4] | 1.84 | 2.04 | 2.54 | 2.55 | 2.58 | 0.551 | 0.00117 | 2.11

CTG-3D luminescence at 96 h
Settings | 12.5 pM | 0.00025 µM | 0.005 µM | 0.1 µM | 1 µM | 10 µM | 100 µM | 625 fM
[3], days in culture: 365 | 2.34 | 2.26 | 2.24 | 2.56 | 1.9 | 1.3 | 0.109 | 1.46
[3], days in culture: 397 | 1.64 | 2.11 | 2.14 | 1.37 | 1.64 | 1.63 | 0.127 | 1.29
[3], days in culture: 401 | 1.46 | 1.83 | 1.73 | 1.59 | 1.25 | 1.44 | 0.0402 | 1.52
[5], days in culture: 202 | 1.02 | 1.45 | 1.36 | 0.838 | 0.917 | 0.832 | 0.0105 | 1.54
[5], days in culture: 231 | 0.876 | 1.18 | 1.07 | 1.57 | 1.44 | 0.512 | 0.00851 | 1.39
[5], days in culture: 254 | 1.47 | 0.96 | 1.64 | 2.25 | 1.02 | 0.584 | 0.0095 | 1.76
[6], days in culture: 145 | 1.6 | 2.25 | 1.81 | 1.29 | 0.739 | 0.0785 | 0.00359 | 2.05
[6], days in culture: 158 | 1.68 | 2.65 | 3.39 | 2.02 | 2.72 | 0.902 | 0.00689 | 5.17
[6], days in culture: 164 | 2.91 | 1.7 | 1.91 | 1.36 | 1.57 | 0.126 | 0.00219 | 1.64
[6], days in culture: 176 | 4.02 | 2.45 | 1.33 | 2.41 | 1.57 | 0.0427 | 0.00427 | 1.78
[6], days in culture: 186 | 1.46 | 2.11 | 2.88 | 2.74 | 0.49 | 0.0763 | 0.00176 | 2.77
